Experimental data: ChEMBL document CHEMBL1133208, “Synthesis and biological properties of new 1beta-methylcarbapenems having tetrazolothioether moiety” (Bioorg Med Chem Lett, 2000)
In brackets after ≈: the same amount, converted by molar mass.

Experiments:
[1] = test system: Staphylococcus aureus; experiment: In vitro antibacterial activity against Staphylococcus aureus SG 285 by agar dilution method using Mueller-Hinton; format: functional
[2] = test system: Salmonella typhimurium; experiment: In vitro antibacterial activity against Salmonella Typhimurium by agar dilution method using Mueller-Hinton; format: functional, Salmonella enterica subsp. enterica serovar Typhimurium; details: Salmonella enterica
[3] = test system: Escherichia coli; experiment: In vitro antibacterial activity against Escherichia coli 1507E by agar dilution method using Mueller-Hinton; format: functional
[4] = test system: Streptococcus pyogenes; experiment: In vitro antibacterial activity against Streptococcus pyogenes 308A by agar dilution method using Mueller-Hinton; format: functional
[5] = test system: Escherichia coli; experiment: In vitro antibacterial activity against Escherichia coli 078 by agar dilution method using Mueller-Hinton; format: functional
[6] = test system: Pseudomonas aeruginosa; experiment: In vitro antibacterial activity against Pseudomonas aeruginosa 1592E by agar dilution method using Mueller-Hinton; format: functional
[7] = test system: Enterobacter cloacae; experiment: In vitro antibacterial activity against Enterobacter cloacae 1321E by agar dilution method using Mueller-Hinton; format: functional
[8] = test system: Staphylococcus aureus; experiment: In vitro antibacterial activity against Staphylococcus aureus SG 511 by agar dilution method using Mueller-Hinton; format: functional
[9] = test system: Pseudomonas aeruginosa; experiment: In vitro antibacterial activity against Pseudomonas aeruginosa 1771M by agar dilution method using Mueller-Hinton; format: functional
[10] = test system: Pseudomonas aeruginosa; experiment: In vitro antibacterial activity against Pseudomonas aeruginosa 9027 by agar dilution method using Mueller-Hinton; format: functional
[11] = test system: Staphylococcus aureus; experiment: In vitro antibacterial activity against Staphylococcus aureus SG 503 by agar dilution method using Mueller-Hinton; format: functional
[12] = test system: Klebsiella aerogenes; experiment: In vitro antibacterial activity against Klebsiella aerogenes 1522E by agar dilution method using Mueller-Hinton; format: functional
[13] = The area under concentration-time curve(AUC) was determined at 20 mg/kg of compound dose, administered intravenously in rat; format: ADME, organism-based; design: dose 20 mg/kg, route intravenous; details: in vivo, iv
[14] = Pharmacokinetic studies were carried out to determine the clearance after administration at 20 mg/kg intravenously in rat; format: ADME, organism-based; design: dose 20 mg/kg, route intravenous; details: in vivo, iv

| Compound | MIC [1] [µg/mL] | MIC [2] [µg/mL] | MIC [3] [µg/mL] | MIC [4] [µg/mL] | MIC [5] [µg/mL] | MIC [6] [µg/mL] | MIC [7] [µg/mL] | MIC [8] [µg/mL] | MIC [9] [µg/mL] | MIC [10] [µg/mL] | MIC [11] [µg/mL] | MIC [12] [µg/mL] | AUC [13] [ng·h/mL] | clearance [14] [mL/min/kg] |
| --- | --- | --- | --- | --- | --- | --- | --- | --- | --- | --- | --- | --- | --- | --- |
| C[C@@H](O)[C@H]1C(=O)N2C(C(=O)O)=C(S[C@@H]3CN[C@H](CSc4nnnn4CCS(=O)(=O)N(C)C)C3)[C@H](C)[C@H]12 | 0.098 (≈ 0.174 µM) | 0.049 (≈ 0.0872 µM) | 0.025 (≈ 0.0445 µM) | 0.007 (≈ 0.0125 µM) | 0.025 (≈ 0.0445 µM) | 12.5 (≈ 22.3 µM) | 0.025 (≈ 0.0445 µM) | 0.098 (≈ 0.174 µM) | 0.391 (≈ 0.696 µM) | 6.25 (≈ 11.1 µM) | 0.025 (≈ 0.0445 µM) | 0.049 (≈ 0.0872 µM) |  |  |
| C[C@@H](O)[C@H]1C(=O)N2C(C(=O)O)=C(S[C@@H]3CN[C@H](CSc4nnnn4CCO)C3)[C@H](C)[C@H]12 | 0.098 (≈ 0.208 µM) | 0.049 (≈ 0.104 µM) | 0.025 (≈ 0.0531 µM) | 0.007 (≈ 0.0149 µM) | 0.025 (≈ 0.0531 µM) | 1.56 (≈ 3.32 µM) | 0.049 (≈ 0.104 µM) | 0.098 (≈ 0.208 µM) | 0.195 (≈ 0.414 µM) | 1.56 (≈ 3.32 µM) | 0.049 (≈ 0.104 µM) | 0.049 (≈ 0.104 µM) |  |  |
| C[C@@H](O)[C@H]1C(=O)N2C(C(=O)O)=C(S[C@@H]3CN[C@H](CSc4nnnn4CCC(N)=O)C3)[C@H](C)[C@H]12 | 0.098 (≈ 0.197 µM) | 0.049 (≈ 0.0985 µM) | 0.025 (≈ 0.0502 µM) | 0.013 (≈ 0.0261 µM) | 0.025 (≈ 0.0502 µM) | 0.781 (≈ 1.57 µM) | 0.025 (≈ 0.0502 µM) | 0.098 (≈ 0.197 µM) | 0.195 (≈ 0.392 µM) | 1.56 (≈ 3.14 µM) | 0.025 (≈ 0.0502 µM) | 0.049 (≈ 0.0985 µM) |  |  |
| C[C@@H](O)[C@H]1C(=O)N2C(C(=O)O)=C(S[C@@H]3CN[C@H](CSc4nnnn4-c4ccccc4)C3)[C@H](C)[C@H]12 | 0.049 (≈ 0.0975 µM) | 0.098 (≈ 0.195 µM) | 0.391 (≈ 0.778 µM) | 0.007 (≈ 0.0139 µM) | 0.195 (≈ 0.388 µM) | 50 (≈ 99.5 µM) | 0.098 (≈ 0.195 µM) | 0.049 (≈ 0.0975 µM) | 3.12 (≈ 6.22 µM) | 50 (≈ 99.5 µM) | 0.025 (≈ 0.0497 µM) | 0.391 (≈ 0.778 µM) |  |  |
| CNC(=O)CCn1nnnc1SC[C@@H]1C[C@H](SC2=C(C(=O)O)N3C(=O)[C@H]([C@@H](C)O)[C@H]3[C@H]2C)CN1 | 0.098 (≈ 0.192 µM) | 0.049 (≈ 0.0958 µM) | 0.025 (≈ 0.0489 µM) | 0.007 (≈ 0.0137 µM) | 0.025 (≈ 0.0489 µM) | 1.56 (≈ 3.05 µM) | 0.025 (≈ 0.0489 µM) | 0.098 (≈ 0.192 µM) | 0.391 (≈ 0.764 µM) | 1.56 (≈ 3.05 µM) | 0.049 (≈ 0.0958 µM) | 0.049 (≈ 0.0958 µM) |  |  |
| C[C@@H](O)[C@H]1C(=O)N2C(C(=O)O)=C(S[C@@H]3CN[C@H](CSc4nnnn4C)C3)[C@H](C)[C@H]12 | 0.049 (≈ 0.111 µM) | 0.025 (≈ 0.0567 µM) | 0.025 (≈ 0.0567 µM) | 0.004 (≈ 0.00908 µM) | 0.025 (≈ 0.0567 µM) | 0.781 (≈ 1.77 µM) | 0.025 (≈ 0.0567 µM) | 0.025 (≈ 0.0567 µM) | 0.195 (≈ 0.443 µM) | 0.781 (≈ 1.77 µM) | 0.025 (≈ 0.0567 µM) | 0.025 (≈ 0.0567 µM) | 15900 | 21.8 |
| C[C@@H](O)[C@H]1C(=O)N2C(C(=O)O)=C(S[C@@H]3CN[C@H](CSc4nnnn4-c4ccncc4)C3)[C@H](C)[C@H]12 | 0.098 (≈ 0.195 µM) | 0.049 (≈ 0.0973 µM) | 0.195 (≈ 0.387 µM) | 0.007 (≈ 0.0139 µM) | 0.098 (≈ 0.195 µM) | 50 (≈ 99.3 µM) | 0.098 (≈ 0.195 µM) | 0.049 (≈ 0.0973 µM) | 0.781 (≈ 1.55 µM) | 50 (≈ 99.3 µM) | 0.049 (≈ 0.0973 µM) | 0.195 (≈ 0.387 µM) |  |  |
| CNS(=O)(=O)CCn1nnnc1SC[C@@H]1C[C@H](SC2=C(C(=O)O)N3C(=O)[C@H]([C@@H](C)O)[C@H]3[C@H]2C)CN1 | 0.098 (≈ 0.179 µM) | 0.049 (≈ 0.0895 µM) | 0.025 (≈ 0.0456 µM) | 0.007 (≈ 0.0128 µM) | 0.025 (≈ 0.0456 µM) | 3.12 (≈ 5.71 µM) | 0.025 (≈ 0.0456 µM) | 0.098 (≈ 0.179 µM) | 0.391 (≈ 0.714 µM) | 3.12 (≈ 5.71 µM) | 0.025 (≈ 0.0456 µM) | 0.049 (≈ 0.0895 µM) |  |  |
| C[C@@H](O)[C@H]1C(=O)N2C(C(=O)O)=C(S[C@@H]3CN[C@H](CSc4nnnn4CCN(C)C)C3)[C@H](C)[C@H]12 | 0.098 (≈ 0.197 µM) | 0.098 (≈ 0.197 µM) | 0.049 (≈ 0.0985 µM) | 0.013 (≈ 0.0261 µM) | 0.025 (≈ 0.0502 µM) | 3.12 (≈ 6.28 µM) | 0.049 (≈ 0.0985 µM) | 0.049 (≈ 0.0985 µM) | 0.195 (≈ 0.392 µM) | 3.12 (≈ 6.28 µM) | 0.025 (≈ 0.0502 µM) | 0.098 (≈ 0.197 µM) |  |  |
| C[C@@H](O)[C@H]1C(=O)N2C(C(=O)O)=C(S[C@@H]3CN[C@H](CSc4nnnn4CC(=O)N(C)C)C3)[C@H](C)[C@H]12 | 0.195 (≈ 0.381 µM) | 0.049 (≈ 0.0958 µM) | 0.049 (≈ 0.0958 µM) | 0.013 (≈ 0.0254 µM) | 0.025 (≈ 0.0489 µM) | 3.12 (≈ 6.11 µM) | 0.049 (≈ 0.0958 µM) | 0.195 (≈ 0.381 µM) | 0.391 (≈ 0.764 µM) | 3.12 (≈ 6.11 µM) | 0.049 (≈ 0.0958 µM) | 0.098 (≈ 0.192 µM) |  |  |
| C[C@@H](O)[C@H]1C(=O)N2C(C(=O)[O-])=C(S[C@@H]3CN[C@H](CSc4nnnn4CC[N+](C)(C)C)C3)[C@H](C)[C@H]12 | 0.195 (≈ 0.381 µM) | 0.195 (≈ 0.381 µM) | 0.098 (≈ 0.192 µM) | 0.025 (≈ 0.0489 µM) | 0.049 (≈ 0.0958 µM) | 0.781 (≈ 1.53 µM) | 0.098 (≈ 0.192 µM) | 0.098 (≈ 0.192 µM) | 0.195 (≈ 0.381 µM) | 0.781 (≈ 1.53 µM) | 0.049 (≈ 0.0958 µM) | 0.195 (≈ 0.381 µM) |  |  |
| CNC(=O)Cn1nnnc1SC[C@@H]1C[C@H](SC2=C(C(=O)O)N3C(=O)[C@H]([C@@H](C)O)[C@H]3[C@H]2C)CN1 | 0.195 (≈ 0.392 µM) | 0.098 (≈ 0.197 µM) | 0.049 (≈ 0.0985 µM) | 0.013 (≈ 0.0261 µM) | 0.025 (≈ 0.0502 µM) | 1.56 (≈ 3.14 µM) | 0.049 (≈ 0.0985 µM) | 0.195 (≈ 0.392 µM) | 0.391 (≈ 0.786 µM) | 1.56 (≈ 3.14 µM) | 0.098 (≈ 0.197 µM) | 0.098 (≈ 0.197 µM) |  |  |
| C[C@@H](O)[C@H]1C(=O)N2C(C(=O)O)=C(SCCNC=N)C[C@H]12 [IMIPENEM ANHYDROUS] | 0.025 (≈ 0.0835 µM) | 0.781 (≈ 2.61 µM) | 0.195 (≈ 0.651 µM) | 0.007 (≈ 0.0234 µM) | 0.098 (≈ 0.327 µM) | 1.56 (≈ 5.22 µM) | 0.195 (≈ 0.651 µM) | 0.025 (≈ 0.0835 µM) | 0.195 (≈ 0.651 µM) | 0.781 (≈ 2.61 µM) | 0.013 (≈ 0.0434 µM) | 0.391 (≈ 1.31 µM) | 5500 | 61.5 |
| C[C@@H](O)[C@H]1C(=O)N2C(C(=O)O)=C(S[C@@H]3CN[C@H](C(=O)N(C)C)C3)[C@H](C)[C@H]12 [MEROPENEM] | 0.195 (≈ 0.509 µM) | 0.049 (≈ 0.128 µM) | 0.025 (≈ 0.0652 µM) | 0.013 (≈ 0.0339 µM) | 0.025 (≈ 0.0652 µM) | 0.195 (≈ 0.509 µM) | 0.025 (≈ 0.0652 µM) | 0.195 (≈ 0.509 µM) | 0.049 (≈ 0.128 µM) | 0.195 (≈ 0.509 µM) | 0.098 (≈ 0.256 µM) | 0.049 (≈ 0.128 µM) |  |  |
